According to BindingDB's records for doi:10.1124/jpet.103.053975 (National Institute On Drug Abuse, 2003):
“And” between values parts separate entries of the source, which are not always exact repeats. Identical values can stand only once.

What was measured:
[1] = molecular target: Sodium-dependent noradrenaline transporter (Homo sapiens, UniProt P23975)
[2] = molecular target: 5-hydroxytryptamine receptor 7 (Homo sapiens, UniProt P34969)
[3] = molecular target: Sodium-dependent serotonin transporter (Homo sapiens, UniProt P31645)
[4] = molecular target: T1, Alpha-2A adrenergic receptor (Homo sapiens, UniProt P08913)
T1 sequence (P08913 whole entry): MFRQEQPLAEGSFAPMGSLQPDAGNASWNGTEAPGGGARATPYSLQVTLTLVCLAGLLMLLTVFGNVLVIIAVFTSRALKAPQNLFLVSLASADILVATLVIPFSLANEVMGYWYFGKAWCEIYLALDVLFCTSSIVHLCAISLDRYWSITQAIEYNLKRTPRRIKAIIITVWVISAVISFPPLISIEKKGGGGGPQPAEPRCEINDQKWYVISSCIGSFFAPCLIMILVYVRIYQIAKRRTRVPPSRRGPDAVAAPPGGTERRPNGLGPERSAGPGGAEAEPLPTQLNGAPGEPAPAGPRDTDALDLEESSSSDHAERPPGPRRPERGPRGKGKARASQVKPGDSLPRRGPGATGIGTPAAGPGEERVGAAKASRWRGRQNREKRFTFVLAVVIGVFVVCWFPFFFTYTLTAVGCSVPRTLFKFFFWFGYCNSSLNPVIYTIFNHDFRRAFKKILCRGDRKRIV

[5] = molecular target: T2, Alpha-2C adrenergic receptor (Homo sapiens, UniProt P18825)
T2 sequence (P18825 whole entry): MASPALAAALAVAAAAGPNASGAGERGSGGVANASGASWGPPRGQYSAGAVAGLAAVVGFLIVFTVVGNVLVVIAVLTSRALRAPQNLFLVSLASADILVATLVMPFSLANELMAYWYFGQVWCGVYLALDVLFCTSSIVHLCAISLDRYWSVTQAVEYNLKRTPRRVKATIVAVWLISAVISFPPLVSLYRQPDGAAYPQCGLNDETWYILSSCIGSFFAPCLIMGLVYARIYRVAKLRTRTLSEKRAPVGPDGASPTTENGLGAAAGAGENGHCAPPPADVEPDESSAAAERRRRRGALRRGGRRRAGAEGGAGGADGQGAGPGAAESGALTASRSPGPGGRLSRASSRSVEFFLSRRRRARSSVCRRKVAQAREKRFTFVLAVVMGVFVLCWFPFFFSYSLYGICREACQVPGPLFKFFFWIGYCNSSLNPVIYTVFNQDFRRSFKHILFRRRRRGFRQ

Sequence of Sodium-dependent serotonin transporter (P31645 whole entry): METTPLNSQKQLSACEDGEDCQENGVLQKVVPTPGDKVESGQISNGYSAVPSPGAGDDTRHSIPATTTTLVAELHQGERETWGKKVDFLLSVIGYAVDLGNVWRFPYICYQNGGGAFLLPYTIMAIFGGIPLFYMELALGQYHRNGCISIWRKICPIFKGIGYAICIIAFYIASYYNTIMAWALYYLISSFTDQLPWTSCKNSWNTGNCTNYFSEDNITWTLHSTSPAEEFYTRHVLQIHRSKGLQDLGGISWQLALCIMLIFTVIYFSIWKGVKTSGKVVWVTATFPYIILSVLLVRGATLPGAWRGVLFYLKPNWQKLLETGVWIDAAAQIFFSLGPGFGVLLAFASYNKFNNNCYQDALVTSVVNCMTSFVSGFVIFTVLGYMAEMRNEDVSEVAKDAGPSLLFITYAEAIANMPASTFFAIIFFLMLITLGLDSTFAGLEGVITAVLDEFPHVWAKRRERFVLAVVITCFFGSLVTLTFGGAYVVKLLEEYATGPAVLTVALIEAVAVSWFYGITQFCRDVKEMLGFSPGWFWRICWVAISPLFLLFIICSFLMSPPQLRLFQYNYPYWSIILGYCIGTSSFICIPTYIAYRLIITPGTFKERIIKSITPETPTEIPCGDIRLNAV
Sequence of Sodium-dependent noradrenaline transporter (P23975 whole entry): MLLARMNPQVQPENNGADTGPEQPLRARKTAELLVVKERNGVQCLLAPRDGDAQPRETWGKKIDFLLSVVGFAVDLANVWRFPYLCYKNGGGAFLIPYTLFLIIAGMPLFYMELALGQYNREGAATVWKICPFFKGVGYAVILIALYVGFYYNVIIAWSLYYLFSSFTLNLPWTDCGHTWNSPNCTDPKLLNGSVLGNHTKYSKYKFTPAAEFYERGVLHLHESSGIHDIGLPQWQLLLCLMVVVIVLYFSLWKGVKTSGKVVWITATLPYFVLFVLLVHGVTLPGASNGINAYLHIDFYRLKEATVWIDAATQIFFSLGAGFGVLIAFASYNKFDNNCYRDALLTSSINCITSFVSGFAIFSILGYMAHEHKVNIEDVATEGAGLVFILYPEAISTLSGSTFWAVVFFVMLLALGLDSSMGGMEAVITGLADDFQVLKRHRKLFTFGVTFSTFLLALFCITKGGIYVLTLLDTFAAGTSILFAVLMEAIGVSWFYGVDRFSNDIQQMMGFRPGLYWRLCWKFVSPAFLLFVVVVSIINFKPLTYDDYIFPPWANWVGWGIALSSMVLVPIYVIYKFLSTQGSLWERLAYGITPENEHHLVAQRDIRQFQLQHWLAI
Sequence of 5-hydroxytryptamine receptor 7 (P34969 whole entry): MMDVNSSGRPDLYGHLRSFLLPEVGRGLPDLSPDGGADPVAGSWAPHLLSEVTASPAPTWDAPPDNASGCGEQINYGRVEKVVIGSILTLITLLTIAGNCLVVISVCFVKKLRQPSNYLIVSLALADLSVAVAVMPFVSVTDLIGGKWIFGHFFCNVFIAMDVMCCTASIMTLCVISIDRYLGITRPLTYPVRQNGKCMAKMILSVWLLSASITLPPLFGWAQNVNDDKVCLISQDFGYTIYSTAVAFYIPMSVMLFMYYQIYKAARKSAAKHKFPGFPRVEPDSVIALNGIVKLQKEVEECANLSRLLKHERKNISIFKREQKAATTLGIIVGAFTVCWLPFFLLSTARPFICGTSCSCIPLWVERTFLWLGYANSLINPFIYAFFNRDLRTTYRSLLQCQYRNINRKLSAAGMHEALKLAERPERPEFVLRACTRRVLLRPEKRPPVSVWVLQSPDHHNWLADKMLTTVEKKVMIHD

Structure (SMILES) | Ki [1] | Ki [2] [nM] | Ki [3] [nM] | Ki [4] | Ki [5]
CNC(C)C(=O)c1ccccc1 (configuration not stated) [NSC_1576] | 13.1 nM | 1000 | 1770 | 9020 nM | 605 nM
CC(N)C(O)c1ccccc1 [(1R, 2S)-2-Amino-1-phenyl-propan-1-ol] | 137 nM and 42.1 nM and 15 nM and 30.1 nM | 7000 | – | 3020 nM and 1330 nM and 2610 nM and 2600 nM | –
CN[C@@H](C)Cc1ccccc1 [METHAMPHETAMINE (+)] | 12.3 nM | – | 736 | – | –
CNC(C)C(O)c1ccccc1 (configuration not stated) [CAS_24221-86-1] | – | – | – | 2010 nM | 708 nM and 1220 nM
CC(N)C(=O)c1ccccc1 (configuration not stated) [CAS_62258] | 12.4 nM | 2700 | 2370 | 6810 nM | 765 nM
